In PubChem BioAssay AID686920 (Broad Institute, 2013):
Activity calls are given as the source filed them.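 The calls were made as follows: active = fitted curve reaching 35% inhibition at a dose no higher than twice the top valid tested dose; inconclusive = flat fit with 30 to 70% inhibition, or a poor fit; inactive = the rest, including activity in the opposite direction.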

system: A673 NR0B1-luciferase reporter, viability-normalised luminescence; assay: NR0B1 reporter signal reduction in A673 cells – cell-based, luciferase luminescence, cherry-pick, EWS/Fli inhibitor project, dose response (AID 686920)

Going from `Cc1ccc(/C=N/Nc2ccnc3cc(Cl)ccc23)c(C)c1` to `O=C(O)c1ccc(N/N=C/c2ccc(OC(=O)c3cccc(Cl)c3)cc2)cc1`, the AC35 falls from 15.3 µM to 7.06 µM (2.2-fold).

`O=C1NC(=O)N(Cc2ccc(F)cc2)C(=O)/C1=C\C=C\c1ccco1` and `O=C1NC(=O)N(Cc2ccccc2)C(=O)/C1=C\C=C\c1ccco1` are within 1.5-fold of each other in AC35: 7.32 µM for the first, 10.4 µM for the second.

`Cc1cccc(NC(=O)CN2CCN(C(=O)CNC(=O)c3ccc(-c4ccccc4)cc3)CC2)c1C` and `COCC(=O)Nc1ccc2c(c1)[C@@H]1C[C@@H](CC(=O)NCc3ccc(-c4ccccc4)cc3)O[C@@H](CO)[C@@H]1O2` are within 1.5-fold of each other in AC35: 8.14 µM for the first, 10.1 µM for the second.

Going from `COC(=O)CC1(C(=O)OC)Oc2ccc(Br)cc2C(=O)N1c1cccc(Cl)c1Cl` (configuration not stated) to `COc1ccc(/C=C2/NC(=O)N(CC(=O)Nc3cccc(C)c3)C2=O)cc1O`, the AC35 falls from 15 µM to 9.76 µM (1.5-fold).

First: C[C@@H]1CN([C@@H](C)CO)C(=O)c2cccc(NS(=O)(=O)c3ccccc3)c2O[C@@H]1CN(C)Cc1ccc(C(=O)Nc2ccccc2N)cc1
Second: Cc1ccc(S(=O)(=O)Nc2ccc3c(c2)C(=O)N([C@H](C)CO)C[C@@H](C)[C@@H](CN(C)Cc2ccc(C(=O)Nc4ccccc4N)cc2)O3)cc1
The AC35 of the first is 1.7-fold lower: 5.67 µM for the first, 9.6 µM for the second.

Compared with `CCCCCCCCNC(C)C(O)c1ccc(SC(C)C)cc1` (configuration not stated), `CCCCCCCCn1c2c(c(=N)c3c1CCC3)CCCC2` is 1.7-fold lower in AC35: 9.79 µM for the first, 5.73 µM for the second.

First: O=c1c2ccccc2oc2cc(C#CC3(O)CCCCC3)ccc12
Second: COc1cc2oc3cc(C#Cc4ccc(N)cc4)ccc3c(=O)c2cc1OC
The AC35 of the first is 2.4-fold lower: 4.33 µM for the first, 10.3 µM for the second.

Compared with `COc1ccc(NC(=O)N2CCCCN3[C@@H](CO)[C@H](c4ccc(C5=CCCCC5)cc4)[C@@H]3C2)cc1`, `O=C(Nc1ccc(OC(=O)N2CCCCC2)cc1)N1CCOCC1` is 3.7-fold lower in AC35: 15.8 µM for the first, 4.3 µM for the second.

`O=C(NCc1cccnc1)C1Cc2c(-c3ccc(Cl)cc3)ccnc2O1` (configuration not stated) and `CC(=O)Nc1cccc(-c2ccnc3c2CC(C)(C(=O)NCc2ccc(N(C)C)cc2)O3)c1` (configuration not stated) are within 1.5-fold of each other in AC35: 6.04 µM for the first, 7.51 µM for the second.

Compared with `CC12CCC3C(CCC4(O)CC(O)CCC34C=NO)C1(O)CCC2C1=COC(=O)C1` (configuration not stated), `COc1ccc(S(=O)(=O)Nc2ccc3c(c2)C(=O)N([C@H](C)CO)C[C@@H](C)[C@@H](CN(C)CC2CCCCC2)OCCCC[C@H](C)O3)cc1` is 48-fold higher in AC35: 0.293 µM for the first, 14.2 µM for the second.

Compared with `CN(C)CC1CCC/C(=C\c2ccc(OC(=O)c3ccc(Cl)cc3)cc2)C1=O` (configuration not stated), `COc1ccc(/C=C2\SC(=O)N(CCCC(=O)Nc3ccc(C(=O)O)cc3)C2=O)cc1` is 11-fold lower in AC35: 5.76 µM for the first, 0.504 µM for the second.

Going from `O=C(NC(=O)c1ccccc1)Nc1ccccc1` to `COC(=O)c1cccc(NC(=O)NC(=O)c2ccc(Cl)cc2)c1`, the AC35 falls from 12.8 µM to 0.225 µM (57-fold).

Going from `C[C@H](CO)N1C[C@H](C)[C@H](CN(C)CC2CCCCC2)Oc2ccc(NC(=O)Nc3cccc4ccccc34)cc2C1=O` to `C[C@H]1CN([C@@H](C)CO)C(=O)c2cc(N(C)C)ccc2O[C@@H]1CN(C)Cc1ccc(C(=O)Nc2ccccc2N)cc1`, the AC35 falls from 43.3 µM to 9.36 µM (4.6-fold).

Compared with `O=C1c2ccccc2C(=O)c2cc(N3CCCCC3)ccc21`, `O=C(COC(=O)c1ccc[nH]c1=O)Nc1ccc(N2CCCCC2)cc1` is 9.4-fold lower in AC35: 2.65 µM for the first, 0.283 µM for the second.

First: Cc1sc2nc(CN3CCC(C)CC3)nc(Cl)c2c1C
Second: CCOC(=O)C1CCCCN1C(=O)CCc1c(C)nc2cc(-c3ccccc3)nn2c1C (configuration not stated)
The AC35 of the first is 54-fold higher: 63 µM for the first, 1.16 µM for the second.

First: Cc1cc2c(C(C)C)c(O)c(O)c(C=O)c2c(O)c1-c1c(C)cc2c(C(C)C)c(O)c(O)c(C=O)c2c1O
Second: CCOc1ccc(N=C2C(=O)Nc3ccc(C)c(Br)c32)cc1
The AC35 of the first is 3.7-fold lower: 7.16 µM for the first, 26.4 µM for the second.

First: O=c1ccc2[n+]([O-])c3ccc(O)cc3oc-2c1
Second: Nc1ccc2oc(-c3cc(Br)ccc3Cl)nc2c1
The AC35 of the first is 4.1-fold lower: 3.7 µM for the first, 15 µM for the second.

Compared with `C[C@@H]1CN([C@H](C)CO)S(=O)(=O)c2ccc(C#CC(C)(C)O)cc2O[C@H]1CN(C)Cc1ccc(-c2ccccc2)cc1`, `C[C@@H]1CN([C@H](C)CO)C(=O)c2cc(N(C)C)ccc2O[C@H]1CN(C)Cc1ccc(C(=O)Nc2ccccc2N)cc1` is 2.2-fold higher in AC35: 4.22 µM for the first, 9.4 µM for the second.

`Cc1c(CC(=O)NCCCC(=O)O)c(=O)oc2cc3c(cc12)CCC(C)(C)O3` and `CC1(C)Oc2cc3oc(-c4cc(O)cc(O)c4)cc3cc2CC1O` (configuration not stated) are within 1.5-fold of each other in AC35: 2.74 µM for the first, 2.07 µM for the second.

First: CCN(CC)c1ccc(C2NC(=O)c3ccccc3N2)cc1 (configuration not stated)
Second: Nc1ccc(-c2cc3ccccc3oc2=O)cc1
The AC35 of the first is 18-fold higher: 3.8 µM for the first, 0.208 µM for the second.

Going from `O=C(O)CN1C(=O)/C(=C\c2ccccc2OCc2ccc(Cl)cc2Cl)SC1=S` to `O=C(CCCN1C(=O)/C(=C/c2ccccc2Cl)SC1=S)NNC(=O)c1ccc(Cl)cc1`, the AC35 falls from 13.7 µM to 8.68 µM (1.6-fold).

`C[C@@H]1CCCCO[C@H](CN(C)Cc2ccc(C(F)(F)F)cc2)[C@H](C)CN([C@H](C)CO)C(=O)c2cc(NC(=O)CCCN(C)C)ccc2O1` and `C[C@@H]1CN([C@@H](C)CO)C(=O)c2cc(NS(=O)(=O)c3ccc(F)cc3)ccc2O[C@@H]1CN(C)Cc1ccc(C(=O)Nc2ccccc2N)cc1` are within 1.5-fold of each other in AC35: 11.9 µM for the first, 9.48 µM for the second.

Compared with `C(=Cc1nc2ccccc2o1)c1ccc2c(c1)OCO2`, `CC1=NN(c2ccccc2)C(=O)/C1=C\C=C\c1ccccc1` is 1.6-fold higher in AC35: 4.5 µM for the first, 6.98 µM for the second.

Going from `O=C1c2ccccc2C(=O)N1CCCCNc1ccccc1` to `CC1=NC(=O)C(N=Nc2cccc(C(=O)O)c2)N1c1ccccc1` (configuration not stated), the AC35 rises from 3.44 µM to 6.99 µM (2-fold).

Going from `CCN1CCS/C1=C\C=C\C1=[N+](CC)CCS1` to `CCN1/C(=C/C(C)=C/c2sc3ccccc3[n+]2CC)Sc2ccccc21`, the AC35 falls from 12.3 µM to 1.56 µM (7.9-fold).

Going from `COc1ccc(CN(C)c2ncnc3sccc23)c(OC)c1OC` to `COc1ccc(C2=Nn3c(nnc3-c3ccccc3OC)SC2)cc1OCC1CC1`, the AC35 falls from 10.7 µM to 6.71 µM (1.6-fold).

Compared with `COc1ccc(Cn2cc3c(-c4ccc(F)cc4)nnc-3c3cc(OC)c(OC)cc32)cc1`, `COc1ccc(Nc2oc(COc3ccccc3OC)nc2C#N)cc1` is 2.3-fold lower in AC35: 14.1 µM for the first, 6.24 µM for the second.

First: O=c1[nH]c(=O)n(C2C[C@H](O)[C@@H](CO)O2)cc1C(F)(F)F (some centres not stated)
Second: N#C[C@H]1[C@H](c2ccc(-c3ccccc3F)cc2)[C@@H](CO)N1C(=O)c1ccccn1
The AC35 of the first is 2.4-fold lower: 4.01 µM for the first, 9.49 µM for the second.

Compared with `CCN1/C(=C/C=C/c2oc3ccc(-c4ccccc4)cc3[n+]2CC)Oc2ccc(-c3ccccc3)cc21`, `O=C(O)c1ccccc1C(=O)Nc1ccc(Oc2ccc3ccccc3c2)cc1` is 2.3-fold higher in AC35: 2.49 µM for the first, 5.69 µM for the second.

Compared with `COc1cccc(OC)c1C(=O)Nc1cc(C)nn1-c1nc2ccccc2[nH]1`, `CCc1ccc(N2C=C(C(=O)OC)C(c3ccc(OC)cc3)C(C#N)=C2N)cc1` (configuration not stated) is 5-fold lower in AC35: 26.7 µM for the first, 5.38 µM for the second.

`O=C1Nc2cc(C(=O)NCCN3CCCCCC3)ccc2S/C1=C\c1ccccc1` and `O=C(NC(c1ccc(F)cc1)c1ccc2ccccc2n1)C1CCN(Cc2cccc(C(F)(F)F)c2)CC1` (configuration not stated) are within 1.5-fold of each other in AC35: 11.6 µM for the first, 7.77 µM for the second.

Compared with `Cc1cc(-c2nc3cc(F)ccc3s2)ccc1N`, `C(=N\Nc1nc2ccccc2s1)/c1ccccn1` is 12-fold lower in AC35: 8.89 µM for the first, 0.77 µM for the second.

Going from `N#CC(C#N)=C1C=CC=CN1/C(=C\c1ccco1)C(=O)c1ccc(Cl)cc1` to `Cc1ccsc1/C=N/Nc1ccc(C(=O)O)cc1`, the AC35 falls from 7.6 µM to 3.1 µM (2.5-fold).

First: CCN1C/C(=C/c2ccc(N3CCOCC3)cc2)C(=O)/C(=C/c2ccc(N3CCOCC3)cc2)C1
Second: CN1C/C(=C/c2ccsc2)C(=O)/C(=C/c2ccsc2)C1
The AC35 of the first is 1.8-fold lower: 5.5 µM for the first, 9.82 µM for the second.

Going from `Cc1c(Cl)cccc1NC(=O)CCC(=O)N/N=C/c1ccc[nH]1` to `CN=c1scc(-c2ccccc2F)n1/N=C/c1ccc[nH]1`, the AC35 falls from 4.78 µM to 0.194 µM (25-fold).

With `Cc1c(Cc2ccc3c(c2)OCO3)sc(NC(=O)C(C)(C)C)c1C#N` the AC35 was 9.84 µM.

`CN(C)C(=O)c1cccc(-c2ccc(C3[C@@H]4CN(Cc5nccs5)C[C@H]3N4)cc2)c1` (some centres not stated) was tested, and the AC35 was > 68 µM (inactive).
